Reference: patent US7960376B2, “Benzo-fused heterocycles” (priority 2007, dated 2011)

Columns and labels:
Assay type in all cases: cell-based
[1] = target: human CB1 receptor (hCB1) (Homo sapiens, UniProt P21554); experiment: cAMP assay (LANCE TR-FRET) in CHO-K1 cells expressing hCB1; conditions: intracellular cAMP, NKH-477 prestimulated, + agonist, − inverse agonist
rat CB2 receptor (rCB2) = target: T1, rat CB2 receptor (rCB2) (Rattus norvegicus, UniProt Q9QZN9); experiment: cell-based; conditions: intracellular cAMP, CHO-K1 cells, NKH-477 prestimulated, + agonist, − inverse agonist
T1 sequence (Q9QZN9 1-360): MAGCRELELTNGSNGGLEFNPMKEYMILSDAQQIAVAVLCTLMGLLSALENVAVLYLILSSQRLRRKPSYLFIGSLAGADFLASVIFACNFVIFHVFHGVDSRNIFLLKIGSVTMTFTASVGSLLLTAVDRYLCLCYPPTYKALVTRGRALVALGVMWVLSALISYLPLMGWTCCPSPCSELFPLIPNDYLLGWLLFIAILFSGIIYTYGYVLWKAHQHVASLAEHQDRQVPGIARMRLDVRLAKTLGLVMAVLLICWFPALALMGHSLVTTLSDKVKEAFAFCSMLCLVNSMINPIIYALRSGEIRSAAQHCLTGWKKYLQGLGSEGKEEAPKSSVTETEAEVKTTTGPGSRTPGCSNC

[2] = target: human CB2 receptor (hCB2) (Homo sapiens, UniProt P34972); experiment: cell-based; conditions: intracellular cAMP, CHO-K1 cells, NKH-477 prestimulated, + agonist, − inverse agonist
Sequence of human CB2 receptor (hCB2) (P34972 whole entry): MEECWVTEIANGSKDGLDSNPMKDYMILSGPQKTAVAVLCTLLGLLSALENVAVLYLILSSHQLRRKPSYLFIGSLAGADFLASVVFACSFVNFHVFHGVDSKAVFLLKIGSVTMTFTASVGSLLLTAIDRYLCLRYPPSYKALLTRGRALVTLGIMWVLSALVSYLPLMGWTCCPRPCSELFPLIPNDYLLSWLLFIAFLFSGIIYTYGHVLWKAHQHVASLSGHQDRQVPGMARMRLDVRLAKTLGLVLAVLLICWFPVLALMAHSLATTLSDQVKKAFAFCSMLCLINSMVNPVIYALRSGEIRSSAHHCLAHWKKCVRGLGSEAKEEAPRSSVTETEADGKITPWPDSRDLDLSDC

Sequence of human CB1 receptor (hCB1) (P21554 whole entry): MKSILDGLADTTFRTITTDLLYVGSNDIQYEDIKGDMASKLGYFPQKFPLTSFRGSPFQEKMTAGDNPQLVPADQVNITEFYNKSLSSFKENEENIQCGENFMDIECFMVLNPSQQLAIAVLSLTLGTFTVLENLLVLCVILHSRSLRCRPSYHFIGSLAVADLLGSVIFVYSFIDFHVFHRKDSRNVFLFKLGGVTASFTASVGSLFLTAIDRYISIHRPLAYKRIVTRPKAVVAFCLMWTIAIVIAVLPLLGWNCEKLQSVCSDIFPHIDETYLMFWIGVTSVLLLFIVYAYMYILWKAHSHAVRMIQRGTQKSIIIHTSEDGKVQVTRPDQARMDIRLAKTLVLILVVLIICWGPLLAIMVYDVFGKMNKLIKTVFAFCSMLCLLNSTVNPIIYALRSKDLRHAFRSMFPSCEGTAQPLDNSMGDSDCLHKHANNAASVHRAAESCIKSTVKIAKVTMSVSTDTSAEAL

| Structure (SMILES) | hCB1 EC50 range [1] | rCB2 EC50 range (rat CB2 receptor (rCB2)) | hCB2 EC50 range [2] | EC50 ([1]; read-out: hCB1 EC50 range) | EC50 (rat CB2 receptor (rCB2); read-out: rCB2 EC50 range) | EC50 ([2]; read-out: hCB2 EC50 range) |
| --- | --- | --- | --- | --- | --- | --- |
| CC(C)CNC(=O)c1ccc2c(c1)N(S(=O)(=O)c1ccc(Cl)cc1)CCO2 [Example 58, 4-(4-chlorophenylsulfonyl)-N-isobutyl-3,4-dihydro-2H-benzo[b][1,4]oxazine-6-carboxamide] | +D | +A | +B |  |  |  |
| CC(C)CNC(=O)c1ccc2c(c1)N(S(=O)(=O)c1ccc(F)cc1)CCO2 [Example 60, 4-(4-fluorophenylsulfonyl)-N-isobutyl-3,4-dihydro-2H-benzo[b][1,4] oxazine-6-carboxamide] | +D | +B | +B |  |  |  |
| O=C(NC1CCCC1)c1ccc2c(c1)N(S(=O)(=O)c1ccccc1)CCO2 [Example 61, N-cyclopentyl-4-(phenylsulfonyl)-3,4-dihydro-2H-benzo[b][1,4]oxazine-6-carboxamide] | +E | +C | +C |  |  |  |
| O=C(NC1CCCC1)c1ccc2c(c1)N(S(=O)(=O)c1ccc(F)cc1)CCO2 [Example 62, N-cyclopentyl-4-(4-fluorophenylsulfonyl)-3,4-dihydro-2H-benzo[b][1,4]oxazine-6-carboxamide] | +D | +A | +B |  |  |  |
| O=C(NC1CCCC1)c1ccc2c(c1)N(S(=O)(=O)c1ccc(Cl)cc1)CCO2 [Example 63, 4-(4-chlorophenylsulfonyl)-N-cyclopentyl-3,4-dihydro-2H-benzo[b][1,4]oxazine-6-carboxamide] | +D | +A | +B |  |  |  |
| O=C(c1ccc2c(c1)N(S(=O)(=O)c1ccc(F)cc1)CCS2)N1CCCC1 [Example 71] | +E | +C | +C |  |  |  |
| CCN(CC)C(=O)c1ccc2c(c1)N(S(=O)(=O)c1ccc(C(F)(F)F)cc1)CCS2 [Example 73, N,N-diethyl-4-(4-(trifluoromethyl)phenylsulfonyl)-3,4-dihydro-2H-benzo[b][1,4]thiazine-6-carboxamide] | +E | +C | +C |  |  |  |
| O=C(c1ccc2c(c1)N(S(=O)(=O)c1ccc(F)cc1)CCS2)N1CCCCC1 [Example 77] | +E | +C | +C |  |  |  |
| CC(C)(C)c1noc(-c2ccc3c(c2)N(S(=O)(=O)c2ccc(C(F)(F)F)cc2)CCS3)n1 [Example 82, 3-tert-butyl-5-(4-(4-(trifluoromethyl)phenylsulfonyl)-3,4-dihydro-2H-benzo[b][1,4]thiazin-6-yl)-1,2,4-oxadiazole] | +D | +B | +B |  |  |  |
| O=S(=O)(c1ccc(F)cc1)N1CCSc2ccc(-c3nc(-c4ccccn4)no3)cc21 [Example 83, 5-(4-(4-fluorophenylsulfonyl)-3,4-dihydro-2H-benzo[b][1,4]thiazin-6-yl)-3-(pyridin-2-yl)-1,2,4-oxadiazole] | +D | +B | +C |  |  |  |
| CC(C)(C)c1noc(-c2ccc3c(c2)N(S(=O)(=O)c2ccccc2)CCS3)n1 [Example 84] | +E | +A | +C |  |  |  |
| CC(C)(C)c1noc(-c2ccc3c(c2)N(S(=O)(=O)c2ccc(F)cc2)CCS3)n1 [Example 85, 3-tert-butyl-5-(4-(4-fluorophenylsulfonyl)-3,4-dihydro-2H-benzo[b][1,4]thiazin-6-yl)-1,2,4-oxadiazole] | +D | +B | +B |  |  |  |
| O=S(=O)(c1ccccc1)N1CCSc2ccc(-c3nc(-c4ccccn4)no3)cc21 [Example 87, 5-(4-(phenylsulfonyl)-3,4-dihydro-2H-benzo[b][1,4]thiazin-6-yl)-3-(pyridin-2-yl)-1,2,4-oxadiazole] |  |  |  | > 10 µM | > 10 µM | > 10 µM |
| CCc1noc(-c2ccc3c(c2)N(S(=O)(=O)c2ccc(C(F)(F)F)cc2)CCS3)n1 [Example 89, 3-ethyl-5-(4-(4-(trifluoromethyl)phenylsulfonyl)-3,4-dihydro-2H-benzo[b][1,4]thiazin-6-yl)-1,2,4-oxadiazole] | +D | +A | +B |  |  |  |
| CCc1noc(-c2ccc3c(c2)N(S(=O)(=O)c2ccc(F)cc2)CCS3)n1 [Example 90, 3-ethyl-5-(4-(4-fluorophenylsulfonyl)-3,4-dihydro-2H-benzo[b][1,4]thiazin-6-yl)-1,2,4-oxadiazole] | +D | +A | +B |  |  |  |
| CC(C)(C)NC(=O)c1ccc2c(c1)N(S(=O)(=O)c1ccccc1)CCC(C)(C)S2 [Example 91, N-tert-butyl-2,2-dimethyl-5-(phenylsulfonyl)-2,3,4,5-tetrahydrobenzo[b][1,4]thiazepine-7-carboxamide] | −E | +B | +D |  |  |  |
| C[C@H](NC(=O)c1ccc2c(c1)N(S(=O)(=O)c1ccccc1)CCC(C)(C)S2)C(C)(C)C [Example 98, (S)-N-(3,3-dimethyl-butan-2-yl)-2,2-dimethyl-5-(phenyl-sulfonyl)-2,3,4,5-tetrahydrobenzo[b][1,4] thiazepine-7-carboxamide] | −D | −E | +D |  |  |  |
| CC1(C)CCN(S(=O)(=O)c2ccc(F)cc2)c2cc(C(=O)N3CCOCC3)ccc2S1 [Example 100, (5-(4-fluorophenyl-sulfonyl)-2,2-dimethyl-2,3,4,5-tetrahydro-benzo[b][1,4]thiazepin-7-yl) (morpholino)-methanone] | −E | +C | +E |  |  |  |
| CC1(C)CCN(S(=O)(=O)c2ccc(F)cc2)c2cc(C(=O)NC3CCCC3)ccc2S1 [Example 101, N-cyclopentyl-5-(4-fluorophenylsulfonyl)-2,2-dimethyl-2,3,4,5-tetrahydrobenzo[b][1,4] thiazepine-7-carboxamide] | −E | −C | +E |  |  |  |
| CNC(=O)[C@@H](NC(=O)c1ccc2c(c1)N(S(=O)(=O)c1ccc(F)cc1)CCC(C)(C)S2)C(C)(C)C [Example 103, (S)-N-(3,3-dimethyl-1-(methylamino)-1-oxobutan-2-yl)-5-(4-fluorophenyl-sulfonyl)-2,2-dimethyl-2,3,4,5-tetrahydrobenz0-[b][1,4]thiazepine-7-carboxamide] | −E | +C | +D |  |  |  |
| O=S(=O)(c1ccc(F)cc1)N1CCSc2ccc(-c3nnc(-c4ccccc4)o3)cc21 [Example 104, 2-(4-(4-fluorophenylsulfonyl)-3,4-dihydro-2H-benzo[b][1,4]thiazin-6-yl)-5-phenyl-1,3,4-oxadiazole] | +D | +B | +C |  |  |  |
| O=S(=O)(c1ccc(C(F)(F)F)cc1)N1CCSc2ccc(-c3nnc(-c4ccccc4)o3)cc21 [Example 105, 2-phenyl-5-(4-(4-(trifluoromethyl)phenylsulfonyl)-3,4-dihydro-2H-benzo[b][1,4]thiazin-6-yl)-1,3,4-oxadiazole] | +D | +A | +C |  |  |  |
| O=S(=O)(c1ccc(F)cc1)N1CCSc2ccc(-c3ncc(-c4ccccc4)[nH]3)cc21 [Example 108, 4-(4-fluorophenylsulfonyl)-6-(5-phenyl-1H-imidazol-2-yl)-3,4-dihydro-2H-benzo[b][1,4]thiazine] | +E | +B | +C |  |  |  |
| O=S(=O)(c1ccc(C(F)(F)F)cc1)N1CCSc2ccc(-c3nc4ccccc4o3)cc21 [Example 109, 2-(4-(4-(trifluoromethyl)phenylsulfonyl)-3,4-dihydro-2H-benzo[b][1,4]thiazin-6-yl)benzo[d]oxazole] | +D | +B | +C |  |  |  |
